From patent US20090253709A1 (NATIONAL DEFENSE MEDICAL CENTER, priority 2008, published 2009)

What was measured:
[1] = test system: hTERT expression; assay: SEAP assay in hTERT-BJ1-PTERT(3.4)-SEAP cells; format: cell-based; conditions: Homo sapiens, read-out: SEAP (Inhibition μM ± SD)
Protocol: A total of 2×10^3 hTERT-BJ1-PTERT(3.4)-SEAP cells were seeded in the 96-well cell culture plate, and incubated with DMEM (GIBCO®)/glucose mixture and Medium 199 (GIBCO®)/10% FBS/1 mM sodium pyruvate (GIBCO®)/4 mM L-glutamine (GIBCO®) mixture at a ratio of 4:1 at 37° C. for 24 hours. When the cells were attached in the bottom of the well, the seriously-diluted compounds with different concentrations ([…]) were treated with the cells for 48 hours, and the PTERT(3.4)-SEAP cells without drug treatment were being the control. After 48 hours of drug treatment, the cultured medium were collected for performing the analysis of SEAP activity. The cells were washed with 1×PBS once immediately, and the MTT assay was performed to compare the compounds with the relative toxicity or the influence to the proliferation and activity.
(§1) The cellular medium after the cellular incubation was transferred into the eppondorf tube, and the activity of endogeneous alkaline phosphatase was inactivated at 65° C. for 10 minutes. After centrification, the mixture was obtained by mixing 50 μl of the supernatant with the equal volume of the SEAP buffer. The mixture and the substrate (120 mM of p-nitrophenylphosphate) were preheated at 37° C. for 10 minutes respectively, and the mixture and the substrate were mixed at a ratio of 1:10 and reacted at 37° C. The absorbance of visible light at 405 nm was determined at the appropriate time intervals, and the enzymatic activity of SEAP was represented by the speed of the increasing absorbance at 405 nm.

[2] = test system: different cancer cell lines; assay: In vitro cytotoxicity, Development Therapeutics Program, summary over all cell lines; format: cell-based; conditions: 1.0×10^−5 M
Description: From the in vitro experiments of the Development Therapeutics Program of the Cancer Research Institute, the United States, it was known that the synthetic heterocyclic anthraquinone derivatives of the present invention have different inhibition levels to the different cancer cell lines under the concentration of 1.0×10^−5 M. Please refer to Table 2, which is the result of in vitro cytotoxicity of 2,7-disubstituted anthraquinone derivatives of the present invention.

[3] = test system: hTERT expression; assay: SEAP assay, H1299/PhTERT-driven SEAP system; format: cell-based, human; conditions: for activity at 1 µM / activity at 10 µM / activity at 100 µM: Homo sapiens
Description: The condition of the cells for selecting the telomerase inhibitor must be the cancer cells with telomerase activity. H1299 is a non-small cell lung cancer cell line with telomerase activity. The hTERT communication gene linked behind PhTERT which is located at the fifth chromosome of H1299 cell can be expressed; however, this expression is hard to detect. Therefore, the plasmid having the SEAP communication gene linked behind PhTERT was transfected into H1299 cells. Under the identical condition, after PhTERT was activated, the SEAP communication gene linked behind the plasmid was also activated. This gene could be detected by this analytic method while expressing.
If additionally added reagent can inhibit PhTERT, the linked SEAP communication gene will not be expressed, and the hTERT communication gene linked behind PhTERT at the fifth chromosome will not be expressed. […]
as §1
The selection of telomerase inhibitors of the anthraquinone compounds provided in the present invention was performed by the H1299/PhTERT-driven SEAP system. SEAP is the communication gene in this drug selection model. The SEAP inhibition was shown as follows. The quantitative cellular medium obtained after the 24-hour drug-treatment and the identical inactivation was reacted with the quantitative SEAP substrate, and the absorbance at 405 nm was detected for 5 time intervals. Subsequently, the linear slope of absorbance to the measuring time was calculated, and the variance of absorbance at 405 nm per minute was represented and compared with the SEAP-producing result of drug-untreated H1299 cells. In addition, the influence of the cell-treated drug solution to the cellular proliferation and the drug toxicity to the cells were considered, and the cellular growth was evaluated by the MTT assay. The drug-treated cells were analyzed by the SEAP assay and the data analysis of MTT assay at the same time. Both results were compared so as to delete the influence of cell number or the activity to SEAP, and the dose-dependent phenomenon could be anticipated in the range of drug concentration designed by the laboratory.
In the preliminary selection, the highest concentration was 1000 μM, and 10-fold serial dilutions were done. Therefore, the final concentrations for treating cells were 1 μM, 10 μM and 100 μM, and the drug concentrations were repeated for 5 times. Since the chemically-synthetic drugs have colors thereon, the SEAP value of drug-treatment without cells was also determined to be the background value which was deducted while treating with the drugs. The candidate drug for inhibiting telomerase on the hTERT gene expression level was evaluated and anticipated.

[4] = test system: telomerase; assay: Telomeric repeat amplification protocol (TRAP); format: biochemical; conditions: compounds at 100, 10 and 1 μM; gel electrophoresis
[5] = BJ1, compound concentration 10 μM
[6] = BJ1, compound concentration 100 μM
[7] = NCI-H1299, H1299, compound concentration 1 μM, read-out: SEAP (Inhibition μM ± SD)
[8] = NCI-H1299, H1299, compound concentration 10 μM, read-out: SEAP (Inhibition μM ± SD)
[9] = NCI-H1299, H1299, compound concentration 100 μM, read-out: SEAP (Inhibition μM ± SD)
[10] = BJ1, compound concentration 1 μM
[11] = NCI-H1299, read-out: SEAP (Inhibition μM ± SD)

Structure (SMILES) | activity at 10 µM [1, 5] | activity at 100 µM [1, 6] | Cellular growth rate (%), Mean [2] | activity at 1 µM [3, 7] | activity at 10 µM [3, 8] | activity at 100 µM [3, 9] | melting point | activity at 1 µM [1, 10] | telomerase inhibition effect in TRAP assay [4] | activity at 1 µM [1] | activity at 10 µM [1] | activity at 100 µM [1] | activity at 1 µM [3, 11] | activity at 10 µM [3, 11] | activity at 100 µM [3, 11] | SEAP (telomerase inhibition) ([3]; low concentration (1 μM))
O=C(CCN1CCCC1)Nc1ccc2c(c1)C(=O)c1cc(NC(=O)CCN3CCCC3)ccc1C2=O [Compound 18, 2,7-Bis[3-(pyrrolidino)propionamido]anthraquinone] | 67 ± 16% | 109 ± 18% | 30.97% | 73 ± 11% | 29 ± 15% | 17 ± 13% | – | – | – | – | – | – | – | – | – | –
O=C(Nc1ccc2c(c1)C(=O)c1cc(NC(=O)c3ccccc3)ccc1C2=O)c1ccccc1 [Compound 29, 2,7-Bis(benzoamido)anthraquinone] | 72 ± 8% | 36 ± 13% | – | 104 ± 10% | 92 ± 11% | 85 ± 19% | 224 °C | 89 ± 2% | telomerase inhibition effect | – | – | – | – | – | – | –
CCNCC(=O)Nc1ccc2c(c1)C(=O)c1cc(NC(=O)CNCC)ccc1C2=O [Compound 10, 2,7-Bis[2-(ethylamino)acetamido]anthraquinone] | – | – | – | – | – | – | 145 °C | – | telomerase inhibition effect | 90 ± 5% | 41 ± 4% | 17 ± 21% | 60 ± 10% | 35 ± 5% | 34 ± 3% | –
CC(C)NCC(=O)Nc1ccc2c(c1)C(=O)c1cc(NC(=O)CNC(C)C)ccc1C2=O [Compound 13, 2,7-Bis[2-(isopropylamino)acetamido]anthraquinone] | – | – | – | – | – | – | 158 °C | – | telomerase inhibition effect | 79 ± 14% | 55 ± 19% | 45 ± 11% | 73 ± 31% | 28 ± 18% | 21 ± 16% | –
CCCC(=O)Nc1ccc2c(c1)C(=O)c1cc(NC(=O)CCC)ccc1C2=O [Compound 28, 2,7-Bis(butyramido)anthraquinone] | – | – | – | – | – | – | 275 °C | – | telomerase inhibition effect | – | – | – | 90 ± 8% | 83 ± 6% | 83 ± 4% | –
O=C(CN1CCCC1)Nc1ccc2c(c1)C(=O)c1cc(NC(=O)CN3CCCC3)ccc1C2=O [Compound 6, 2,7-Bis[2-(pyrrolidino)acetamido]anthraquinone] | – | – | – | 88 ± 10% | 48 ± 13% | 30 ± 10% | 201 °C | – | telomerase inhibition effect | – | – | – | – | – | – | –
CC(=O)Nc1ccc2c(c1)C(=O)c1cc(NC(C)=O)ccc1C2=O [Compound 26, 2,7-Bis(acetamido)anthraquinone] | – | – | 99.06% | – | – | – | 340 °C | – | telomerase inhibition effect | 123 ± 5% | 117 ± 3% | 117 ± 5% | 97 ± 10% | 87 ± 14% | 74 ± 18% | –
O=C1c2ccc(NC(=O)C3CC3)cc2C(=O)c2cc(NC(=O)C3CC3)ccc21 [Compound 32, 2,7-Bis(cyclopropanecarbonamido)anthraquinone] | – | – | 91.54% | 80 ± 1% | 81 ± 1% | 81 ± 1% | 352 °C | – | – | – | – | – | – | – | – | –
CN(C)CC(=O)Nc1ccc2c(c1)C(=O)c1cc(NC(=O)CN(C)C)ccc1C2=O [Compound 8, 2,7-Bis[2-(dimethylamino)acetamido]anthraquinone] | – | – | 28.70% | – | – | – | – | – | telomerase inhibition effect | 96 ± 1% | 44 ± 5% | 3 ± 13% | 87 ± 12% | 40 ± 20% | 21 ± 14% | –
CN(C)CCC(=O)Nc1ccc2c(c1)C(=O)c1cc(NC(=O)CCN(C)C)ccc1C2=O [Compound 20, 2,7-Bis[3-(dimethylamino)propionamido]anthraquinone] | – | – | – | – | – | – | 196 °C | – | telomerase inhibition effect | 86 ± 2% | 61 ± 2% | 38% | 5 ± 94% | 13 ± 30% | – | –
CCN(CC)CCC(=O)Nc1ccc2c(c1)C(=O)c1cc(NC(=O)CCN(CC)CC)ccc1C2=O [Compound 16, 2,7-Bis[3-(diethylamino)propionamido]anthraquinone] | 49 ± 3% | 37 ± 5% | 16.33% | 76 ± 19% | 35 ± 17% | 26 ± 11% | – | 84 ± 5% | telomerase inhibition effect | – | – | – | – | – | – | –
CN1CCN(CC(=O)Nc2ccc3c(c2)C(=O)c2cc(NC(=O)CN4CCN(C)CC4)ccc2C3=O)CC1 [Compound 11, 2,7-Bis[2-(N-methylpiperazino)acetamido]anthraquinone] | 68 ± 21% | 97 ± 30% | – | 76 ± 21% | 50 ± 11% | 23 ± 9% | 173 °C | 61 ± 21% | – | – | – | – | – | – | – | –
O=C(CCl)Nc1ccc2c(c1)C(=O)c1cc(NC(=O)CCl)ccc1C2=O [Compound 3, 2,7-bis(chloroacetamido)anthraquinone] | – | – | – | – | – | – | 286 °C | – | – | – | 69 ± 34% | 135 ± 21% | 72 ± 3% | 40 ± 1% | 36 ± 1% | –
O=C(Cc1ccccc1)Nc1ccc2c(c1)C(=O)c1cc(NC(=O)Cc3ccccc3)ccc1C2=O [Compound 30, 2,7-Bis(phenylacetamido)anthraquinone] | 79 ± 6% | 40 ± 15% | – | 97 ± 18% | 91 ± 21% | 80 ± 17% | 224 °C | 85 ± 8% | – | – | – | – | – | – | – | 70±6%
